Test results: paper PMC8578705 (Cell Reports, 2021)
“And” between values parts separate entries of the source, which are not always exact repeats. Equal entries are not always repeated. One block for each compound: values may come before it.

Key:
[1] = biological target: T1, IP3R1 (DT40-IP3R1 cells) (Rattus norvegicus, UniProt P29994); assay: Ca2+ release from permeabilized DT40-IP3R1 cells (Mag-fluo 4); format: cell-based
T1 construct: expressed in transfected cells; host or cells: Gallus gallus DT40 cells without native IP3Rs, stably transfected
Method: (§1) Incubation of cells with the acetoxymethylester (AM) of Mag-fluo 4 traps low-affinity forms of the indicator ( KdCa = 1.15 mM measured in situ) within the ER. Fluorescence, which is approximately linearly related to ER free [Ca^2+] (since [Ca^2+]ER < KdCa ), can then be used, without further calibration, to reliably report free [Ca^2+] within the ER lumen ([Rossi and Taylor, 2020]). The ER of DT40 or HEK293 cells was loaded with indicator by incubating cells with Mag-fluo 4 AM (20 μM, 60 min, 22°C) in HEPES-buffered saline (HBS: 135 mM NaCl, 5.9 mM KCl, 11.6 mM HEPES, 1.5 mM CaCl2, 11.5 mM glucose, 1.2 mM MgCl2, pH 7.3) as described ([Rossi et al., 2009]). After washing and permeabilization with saponin (10 μg/mL, 37°C, 2-3 min) in Ca^2+-free cytosol-like medium (Ca^2+-free CLM), cells were centrifuged (650 × g, 2 min) and resuspended in Mg^2+-free CLM supplemented with CaCl2 to give a final free [Ca^2+] of 220 nM after addition of 1.5 mM MgATP. Ca^2+-free CLM comprised: 20 mM NaCl, 140 mM KCl, 1 mM EGTA, 20 mM PIPES, 2 mM MgCl2, pH 7.0. Cells (4 × 10^5 cells/well) were attached to poly-L-lysine-coated 96-well black-walled plates (Greiner Bio-One, Stonehouse, UK), and fluorescence (excitation and emission at 485 nm and 520 nm, respectively) was recorded at intervals of 1.44 s using a FlexStation III plate-reader (Molecular Devices, Sunnyvale, CA, USA). MgATP (1.5 mM) was added to initiate Ca^2+ uptake, and when the ER had loaded to steady state with Ca^2+ (∼150 s), ligands were added. Responses to the ligands show ER Ca^2+ contents as either time courses or, in summary results, as the Ca^2+ content recorded 20 s after addition of the stimulus. The distribution of samples across 96-well plates was varied between experiments to avoid any systematic ‘position-related’ artifacts. HEK-G-CEPIA1er cells were permeabilized and assayed as described for Mag-fluo 4-loaded cells.
(§2) For equilibrium binding and concentration-effect relationships, results from each experiment were fitted to Hill equations (PRISM) from which pIC50 (-log of half-maximal inhibitory concentration) or pEC50 (-log of half-maximally effective concentration) values were determined. KDligand was calculated from: KDligand = […] . In functional assays, dose ratios (DR) were used to calculate antagonist affinities ([Arunlakshana and Schild, 1959]): KDantagonist = [antagonist]/(DR-1).

[2] = biological target: T2, IBC (residues 224-604 of IP3R1) (Rattus norvegicus, UniProt P29994); assay: Equilibrium-competition [3H]IP3 binding to the IBC fragment in TEM; conditions: read-out: IBC, KD
T2 construct: Residues 224-604 of rat IP3R1 (IBC) in pTrcHisA plasmid; His6 (N, cleaved yes); made in house; host or cells: E. coli (bacterial lysate used in the assay)
T2 sequence (P29994 224-604): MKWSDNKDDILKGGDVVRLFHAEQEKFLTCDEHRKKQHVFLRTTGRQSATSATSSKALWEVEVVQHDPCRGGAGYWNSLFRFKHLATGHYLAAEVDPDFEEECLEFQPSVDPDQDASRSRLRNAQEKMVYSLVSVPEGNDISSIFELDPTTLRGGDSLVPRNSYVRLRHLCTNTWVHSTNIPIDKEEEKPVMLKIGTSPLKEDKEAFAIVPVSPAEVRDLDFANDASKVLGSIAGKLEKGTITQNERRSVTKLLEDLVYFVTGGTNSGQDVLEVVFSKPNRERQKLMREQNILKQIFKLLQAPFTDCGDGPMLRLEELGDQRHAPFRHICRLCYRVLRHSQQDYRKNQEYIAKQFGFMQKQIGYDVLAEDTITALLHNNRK
Method: (§3) IP3R1, which accounts for ∼99% of IP3Rs in cerebellum ([Wojcikiewicz, 1995]), was purified from cerebella of adult Wistar rats using heparin-affinity chromatography ([Rossi et al., 2009]). The purified protein (10 μg/mL) was stored at −80°C in 500 mM NaCl, 50 mM Tris, 10% glycerol, 1 mM 2-mercaptoethanol, 1 mM benzamidine, 1 mM EGTA, 50 mM Tris, 1% CHAPS, pH 8.0. N-terminal fragments of IP3R1 (IBC, residues 224-604; NT, residues 1-604) were expressed as N-terminally tagged His6-fusion proteins in E. coli and cleaved from the tag with thrombin ([Rossi et al., 2009]). […] Bound and free ligand were separated by centrifugation (4°C, 5 min, 14,000 × g).
as §2

[3] = biological target: T3, IP3R1 (Rattus norvegicus, UniProt P29994); assay: Nuclear patch-clamp recording from excised nuclear patches of DT40-IP3R1 cells; format: biochemical, mammalian
T3 construct: expressed in transfected cells; host or cells: Gallus gallus DT40 cells without native IP3Rs, stably transfected
Method: The methods used for patch-clamp recording from patches excised from the outer nuclear envelope of DT40-IP3R1 cells, with K^+ as charge-carrier and using QuB ([Qin, 2004]) for analysis of currents, were as described previously ([Taufiq-Ur-Rahman et al., 2009]; [Rossi et al., 2009]). It typically took 30-45 s to establish a recording, and Po was then stable throughout recordings that typically lasted up to 8-10 mins.

[4] = biological target: T4, IP3R1 (cerebellar membranes) (Rattus norvegicus, UniProt P29994); assay: Equilibrium-competition [3H]IP3 binding to cerebellar membranes in CLM (conditions mimicking functional assays)
T4 construct: membranes from cerebella of adult Wistar rats; from tissue; host or cells: cerebellar membranes of adult Wistar rats
T4 sequence (P29994 whole entry): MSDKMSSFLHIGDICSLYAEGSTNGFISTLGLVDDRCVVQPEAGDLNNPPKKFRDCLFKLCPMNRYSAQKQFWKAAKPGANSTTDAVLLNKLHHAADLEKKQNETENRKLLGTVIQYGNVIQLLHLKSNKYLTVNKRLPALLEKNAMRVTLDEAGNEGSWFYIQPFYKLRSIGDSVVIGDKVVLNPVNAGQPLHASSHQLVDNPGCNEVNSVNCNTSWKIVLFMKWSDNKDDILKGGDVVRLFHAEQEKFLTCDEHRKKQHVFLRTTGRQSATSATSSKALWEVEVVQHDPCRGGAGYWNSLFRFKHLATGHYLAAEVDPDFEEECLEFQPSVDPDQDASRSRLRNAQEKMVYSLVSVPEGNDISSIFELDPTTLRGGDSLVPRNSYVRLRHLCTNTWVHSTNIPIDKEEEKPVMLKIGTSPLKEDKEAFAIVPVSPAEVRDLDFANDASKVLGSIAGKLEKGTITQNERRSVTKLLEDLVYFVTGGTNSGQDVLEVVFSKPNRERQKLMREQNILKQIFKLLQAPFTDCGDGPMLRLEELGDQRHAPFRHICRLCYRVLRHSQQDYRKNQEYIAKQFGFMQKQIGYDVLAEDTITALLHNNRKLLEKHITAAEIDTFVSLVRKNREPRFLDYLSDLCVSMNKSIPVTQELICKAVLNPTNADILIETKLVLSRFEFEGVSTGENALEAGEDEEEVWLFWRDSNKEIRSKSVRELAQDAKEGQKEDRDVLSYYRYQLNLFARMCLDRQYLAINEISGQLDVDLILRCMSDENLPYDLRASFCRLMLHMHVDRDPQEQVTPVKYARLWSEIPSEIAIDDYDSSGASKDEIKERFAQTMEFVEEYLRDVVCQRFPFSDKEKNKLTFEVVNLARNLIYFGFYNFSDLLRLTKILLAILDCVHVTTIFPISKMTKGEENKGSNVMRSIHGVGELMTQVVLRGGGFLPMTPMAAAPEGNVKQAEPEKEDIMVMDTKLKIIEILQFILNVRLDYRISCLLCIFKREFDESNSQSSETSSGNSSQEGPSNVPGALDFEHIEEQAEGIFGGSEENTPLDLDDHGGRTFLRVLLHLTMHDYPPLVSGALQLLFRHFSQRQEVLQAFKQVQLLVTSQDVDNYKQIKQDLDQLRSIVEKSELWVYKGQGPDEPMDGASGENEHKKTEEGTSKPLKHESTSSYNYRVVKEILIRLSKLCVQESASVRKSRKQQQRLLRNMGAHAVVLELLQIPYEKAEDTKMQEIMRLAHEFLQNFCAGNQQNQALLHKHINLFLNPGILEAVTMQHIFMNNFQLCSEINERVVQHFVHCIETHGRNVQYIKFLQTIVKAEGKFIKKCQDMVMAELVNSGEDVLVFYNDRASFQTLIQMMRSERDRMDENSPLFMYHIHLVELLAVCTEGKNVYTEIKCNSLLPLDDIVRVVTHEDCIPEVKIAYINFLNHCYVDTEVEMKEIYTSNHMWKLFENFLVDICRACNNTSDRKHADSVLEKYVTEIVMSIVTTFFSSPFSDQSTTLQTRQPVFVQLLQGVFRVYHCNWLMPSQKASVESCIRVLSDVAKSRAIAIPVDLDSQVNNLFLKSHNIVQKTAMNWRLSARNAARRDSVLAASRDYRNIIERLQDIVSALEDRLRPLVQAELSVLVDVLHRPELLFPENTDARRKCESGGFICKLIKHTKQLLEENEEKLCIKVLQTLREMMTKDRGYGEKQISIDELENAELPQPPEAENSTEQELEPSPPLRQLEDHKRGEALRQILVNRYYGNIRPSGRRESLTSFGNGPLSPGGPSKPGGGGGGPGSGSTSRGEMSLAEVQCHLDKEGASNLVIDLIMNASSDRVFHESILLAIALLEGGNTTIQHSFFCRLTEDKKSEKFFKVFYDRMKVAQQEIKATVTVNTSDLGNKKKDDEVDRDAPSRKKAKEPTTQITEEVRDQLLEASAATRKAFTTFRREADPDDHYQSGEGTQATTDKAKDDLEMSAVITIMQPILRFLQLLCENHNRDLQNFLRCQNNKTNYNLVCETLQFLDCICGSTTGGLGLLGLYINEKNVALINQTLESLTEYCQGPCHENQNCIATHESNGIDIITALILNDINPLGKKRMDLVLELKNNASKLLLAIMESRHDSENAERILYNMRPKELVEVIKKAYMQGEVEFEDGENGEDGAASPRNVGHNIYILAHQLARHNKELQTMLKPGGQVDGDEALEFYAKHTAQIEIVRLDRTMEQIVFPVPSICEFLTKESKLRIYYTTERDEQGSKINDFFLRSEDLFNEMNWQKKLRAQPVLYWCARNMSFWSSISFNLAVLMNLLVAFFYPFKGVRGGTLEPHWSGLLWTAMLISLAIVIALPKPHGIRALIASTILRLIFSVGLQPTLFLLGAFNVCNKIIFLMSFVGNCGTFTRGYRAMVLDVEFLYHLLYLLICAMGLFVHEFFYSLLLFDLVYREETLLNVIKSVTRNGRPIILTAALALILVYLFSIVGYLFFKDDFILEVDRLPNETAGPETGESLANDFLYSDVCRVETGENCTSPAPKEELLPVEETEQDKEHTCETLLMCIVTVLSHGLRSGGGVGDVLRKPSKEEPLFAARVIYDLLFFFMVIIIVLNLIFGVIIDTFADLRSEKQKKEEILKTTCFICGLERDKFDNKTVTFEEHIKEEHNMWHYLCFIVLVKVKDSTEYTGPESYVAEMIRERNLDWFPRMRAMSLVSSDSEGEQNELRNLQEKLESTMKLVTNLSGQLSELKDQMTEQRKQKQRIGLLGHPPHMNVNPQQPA
Method: Bound and free ligand were separated by centrifugation (22°C, 5 min, 14,000 × g).
as §2

[5] = biological target: T5, NT (residues 1-604 of IP3R1) (Rattus norvegicus, UniProt P29994); assay: Equilibrium-competition [3H]IP3 binding to the NT fragment in TEM; conditions: [3H]IP3 0.75 nM, read-out: NT, KD
T5 construct: Residues 1-604 of rat IP3R1 (NT) in pTrcHisA plasmid; His6 (N, cleaved yes); made in house; host or cells: E. coli (bacterial lysate used in the assay)
T5 sequence (P29994 1-604): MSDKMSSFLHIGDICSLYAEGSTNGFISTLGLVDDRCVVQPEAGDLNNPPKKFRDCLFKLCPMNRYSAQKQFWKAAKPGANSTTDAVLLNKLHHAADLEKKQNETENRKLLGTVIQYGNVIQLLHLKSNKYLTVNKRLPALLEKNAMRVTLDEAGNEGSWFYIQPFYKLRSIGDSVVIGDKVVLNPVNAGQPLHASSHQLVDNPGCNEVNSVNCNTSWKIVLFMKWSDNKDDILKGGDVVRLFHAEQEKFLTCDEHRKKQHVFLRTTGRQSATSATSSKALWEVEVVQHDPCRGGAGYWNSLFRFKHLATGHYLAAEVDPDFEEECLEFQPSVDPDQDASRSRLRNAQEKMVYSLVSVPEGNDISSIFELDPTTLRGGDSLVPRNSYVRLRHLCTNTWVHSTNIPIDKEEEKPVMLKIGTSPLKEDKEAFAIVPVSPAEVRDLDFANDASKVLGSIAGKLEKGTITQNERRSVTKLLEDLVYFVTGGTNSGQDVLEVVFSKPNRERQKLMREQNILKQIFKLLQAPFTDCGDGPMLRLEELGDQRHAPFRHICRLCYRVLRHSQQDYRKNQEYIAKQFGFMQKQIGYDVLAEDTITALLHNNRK
Method: as §3, §2

[6] = tested on: IP3Rs (wild-type HEK cells); assay: Ca2+ release from permeabilized wild-type HEK cells; format: cell-based, Homo sapiens; conditions: 20 s after addition
Method: as §1, §2

[7] = biological target: T6, IP3R1 (HEK-IP3R1 cells) (Rattus norvegicus, UniProt P29994); assay: Ca2+ release from permeabilized HEK-IP3R1 cells; format: cell-based; conditions: at the concentrations used (heparin 10 mg/mL, dequalinium 50 μM, 2-APB 125 μM), permeabilized HEK-IP3R1 cells
T6 construct: expressed in transfected cells
Method: Fluorescence, which is approximately linearly related to ER free [Ca^2+] […] Ca^2+-free CLM comprised: 20 mM NaCl, 140 mM KCl, 1 mM EGTA, 20 mM PIPES, 2 mM MgCl2, pH 7.0. […] MgATP (1.5 mM) was added to initiate Ca^2+ uptake, and when the ER had loaded to steady state with Ca^2+ (∼150 s), ligands were added. Responses to the ligands show ER Ca^2+ contents as either time courses or, in summary results, as the Ca^2+ content recorded 20 s after addition of the stimulus. The distribution of samples across 96-well plates was varied between experiments to avoid any systematic ‘position-related’ artifacts. HEK-G-CEPIA1er cells were permeabilized and assayed as described for Mag-fluo 4-loaded cells.
For equilibrium binding and concentration-effect relationships, results from each experiment were fitted to Hill equations (PRISM) from which pIC50 (-log of half-maximal inhibitory concentration) or pEC50 (-log of half-maximally effective concentration) values were determined.

ECI50/KD ratio relative to IP3 (fold greater) [1]: 41 fold | Ca2+ release evoked by 2 (%) ([1]; 2 at 1 µM, 30 s, permeabilized DT40-IP3R1 cells): 31% ± 7% and 31 ± 7% | Ca2+ stores released by a maximal concentration ([1]; 2 at 30 μM, determined at 150 s, permeabilized DT40-IP3R1 cells): 52% ± 3% | Kd ([1]; DT40-IP3R1 cells, read-out: KD derived from functional assays): ~0.45 µM | pKD-pECI50 ([1]; KD for IP3R1 in TEM, ECI50 in DT40-IP3R1 cells, mean ± SEM): 2.15 ± 0.15 | Kb ([1]; functional analysis, IP3-evoked Ca2+ release ± 2 (1 µM), DT40-IP3R1 cells, read-out: KD determined from dose-ratio analysis, KD = [2]/(DR-1)): 0.426 µM | Ca2+ release, Release (maximal) ([1]; permeabilized DT40-IP3R1 cells, determined after 20 s, mean ± SEM): 51.9 ± 0.7% | EC50 ([1]; permeabilized DT40-IP3R1 cells, determined after 20 s, read-out: Ca2+ release, EC50): 0.479 µM | Kd [2]: 0.00044 µM | decrease in τo relative to IP3 (fold) [3]: ~2 fold | maximal NPo relative to IP3 (fold less) [3]: 40 fold | τo, mean channel open time ([3]; 10 µM ligand): 4.4 ± 0.20 ms | NPo (channel activity) ([3]; 10 µM ligand in pipette, +40 mV, K+ charge carrier, mean ± SEM): 0.012 ± 0.003 | γK, single-channel K+ conductance ([3]; 10 µM ligand, from current-voltage relationships): 217 ± 4 pS | Hill coefficient (h) of binding ([4]; cerebellar membranes, CLM at 20°C): 2.0 ± 0.7 | Kd ([4]; cerebellar membranes, CLM, conditions that mimic functional assays): 0.549 µM | KD relative to KD for IP3 (fold lower) ([4]; conditions that mimic functional assays): 1.5 fold | Kd [5]: 0.00232 µM
SMILES: O=C(NCCCN(CCCCN(CCCNC(=O)OCc1ccccc1)C(=O)OCc1ccccc1)C(=O)OCc1ccccc1)NCCO[C@@H]1[C@H](O)[C@@H](OP(=O)(O)O)[C@H](OP(=O)(O)O)[C@@H](O)[C@@H]1OP(=O)(O)O [Compound 2, 2-O-(1,5,10-tris(benzyloxycarbonyl)-15-oxo-1,5,10,14,16-pentaazaoctadecan-18-yl)-1D-myo-inositol 1,4,5-trisphosphate]
Ca2+ release (%) ([6]; maximal): 51 ± 7% | pEC50 ([6]; mean ± SEM): 6.09 ± 0.22

block of IP3-evoked Ca2+ release [7]: partially
SMILES: NCCOB(c1ccccc1)c1ccccc1 [Compound 2-APB, 2-aminoethoxydiphenyl borate]

effect on specific [3H]IP3 binding ([4]; dequalinium 50 μM, [3H]IP3 7.5 nM, cerebellar membranes in CLM at 20°C): No significant difference | block of IP3-evoked Ca2+ release [7]: completely
SMILES: Cc1cc(N)c2ccccc2[n+]1CCCCCCCCCC[n+]1c(C)cc(N)c2ccccc21 [dequalinium, Dequalinium chloride hydrate]
